Measured values as given in ChEMBL document CHEMBL1126199, “(R)-(-)- and (S)-(+)-adenallene: synthesis, absolute configuration, enantioselectivity of antiretroviral effect, and enzymic deamination” (J Med Chem, 1992).
pIC50: −log10 of the molar value.

Tested on: Human immunodeficiency virus 1
Assay: Compound was tested for inhibition of HIV-1
Type: functional, organism-based

SMILES | pIC50
Nc1ncnc2c1ncn2C=C=CCO (stereo in doubt; 1a) | 4.85
Nc1ncnc2c1ncn2C=C=CCO (stereo in doubt; 2) | 5.24
Nc1ncnc2c1ncn2C=C=CCO (stereo in doubt; 3) | < 3.70
